From PubChem BioAssay AID330 (DTP/NCI, 2004)
Several values for one entry are separate records, joined by “and”; a condition that tells them apart may be missing. Identical values can stand only once. Toxic doses and inconclusive results are not listed.

System: P388 leukemia ip, CD2F1 mice, survival T/C
Assay: NCI In Vivo Anticancer Drug Screen. Data for tumor model P388 Leukemia (intraperitoneal) in CD2F1 (CDF1) mice
Details: endpoint: median survival time, higher = longer survival
Procedure, shortened: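 Mice carrying the transplanted tumor received test compound or vehicle. Survival was recorded in each group, and the value is the treated-group measurement divided by that of the vehicle-treated control group.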

[1] = dose: 50.0 mg/kg/injection, schedule: Q01DX005 (ip), vehicle: Klucel (hydroxypropylcellulose) (HPC)
[2] = dose: 100.0 mg/kg/injection, schedule: Q01DX005 (ip), vehicle: Klucel (hydroxypropylcellulose) (HPC)
[3] = dose: 200.0 mg/kg/injection, schedule: Q01DX005 (ip), vehicle: Klucel (hydroxypropylcellulose) (HPC)
[4] = dose: 100.0 mg/kg/injection, schedule: Q04DX003 (ip), vehicle: saline with Tween-80
[5] = dose: 200.0 mg/kg/injection, schedule: Q04DX003 (ip), vehicle: saline with Tween-80
[6] = dose: 400.0 mg/kg/injection, schedule: Q04DX003 (ip), vehicle: saline with Tween-80
[7] = dose: 100.0 mg/kg/injection, schedule: Q04DX002 (ip), vehicle: Klucel (hydroxypropylcellulose) (HPC)
[8] = dose: 200.0 mg/kg/injection, schedule: Q04DX002 (ip), vehicle: Klucel (hydroxypropylcellulose) (HPC)
[9] = dose: 400.0 mg/kg/injection, schedule: Q04DX002 (ip), vehicle: Klucel (hydroxypropylcellulose) (HPC)
[10] = dose: 50.0 mg/kg/injection, schedule: Q01DX009 (ip), vehicle: saline with Tween-80
[11] = dose: 60.0 mg/kg/injection, schedule: Q01DX005 (ip), vehicle: saline with Tween-80
[12] = dose: 120.0 mg/kg/injection, schedule: Q01DX005 (ip), vehicle: saline with Tween-80
[13] = dose: 240.0 mg/kg/injection, schedule: Q01DX005 (ip), vehicle: saline with Tween-80
[14] = dose: 100.0 mg/kg/injection, schedule: Q01DX009 (ip), vehicle: saline with Tween-80
[15] = dose: 200.0 mg/kg/injection, schedule: Q01DX009 (ip), vehicle: saline with Tween-80
[16] = dose: 25.0 mg/kg/injection, schedule: Q01DX009 (ip), vehicle: Klucel (hydroxypropylcellulose) (HPC)
[17] = dose: 50.0 mg/kg/injection, schedule: Q01DX009 (ip), vehicle: Klucel (hydroxypropylcellulose) (HPC)
[18] = dose: 100.0 mg/kg/injection, schedule: Q01DX009 (ip), vehicle: Klucel (hydroxypropylcellulose) (HPC)

With `OC1CC2CCCCC2CC1(O)c1ccc(OCc2ccccc2)c(OCc2ccccc2)c1` (centres undefined) the T/C (dose: 25.0 mg/kg/injection, schedule: Q01DX001 (ip), vehicle: saline with Tween-80) was 92 % of control, the T/C (dose: 50.0 mg/kg/injection, schedule: Q01DX001 (ip), vehicle: saline with Tween-80) was 88 % of control and the T/C (dose: 100.0 mg/kg/injection, schedule: Q01DX001 (ip), vehicle: saline with Tween-80) was 86 % of control.
`CC(=O)OCC1OC(n2cnc3c(Cl)nc(Cl)nc32)CC(OC(C)=O)C1OC(C)=O` (centres undefined) was tested, and the T/C [1] was 93 % of control, the T/C [2] was 99 % of control and the T/C [3] was 91 % of control.
`Oc1ccc(Cc2ccc(O)cc2)cc1` was tested, and the T/C [4] was 102 % of control, the T/C [5] was 101 % of control and the T/C [6] was 115 % of control.
`Nc1cc2ccncc2c2ccccc12` was tested, and the T/C (dose: 50.0 mg/kg/injection, schedule: Q04DX003 (ip), vehicle: saline sonified) was 100 % of control, the T/C (dose: 100.0 mg/kg/injection, schedule: Q04DX003 (ip), vehicle: saline sonified) was 90 % of control and the T/C (dose: 200.0 mg/kg/injection, schedule: Q04DX003 (ip), vehicle: saline sonified) was 95 % of control.
In the case of `COc1ccc(-c2cc(C(=O)Nc3cc(C(F)(F)F)cc(C(F)(F)F)c3)c3ccccc3n2)cc1`, the T/C (dose: 50.0 mg/kg/injection, schedule: Q01DX005 (ip), vehicle: saline with Tween-80) was 91 % of control, the T/C (dose: 100.0 mg/kg/injection, schedule: Q01DX005 (ip), vehicle: DMSO) was 118 % of control and the T/C (dose: 100.0 mg/kg/injection, schedule: Q01DX005 (ip), vehicle: saline with Tween-80) was 89 % of control. The T/C (dose: 200.0 mg/kg/injection, schedule: Q01DX005 (ip), vehicle: DMSO) was 118 % of control, the T/C (dose: 200.0 mg/kg/injection, schedule: Q01DX005 (ip), vehicle: saline with Tween-80) was 93 % of control and the T/C (dose: 400.0 mg/kg/injection, schedule: Q01DX005 (ip), vehicle: DMSO) was 96 % of control.
`CCNC(=O)CCC(NS(=O)(=O)c1ccccc1)C(=O)O` (centres undefined) was tested, and the T/C [7] was 103 % of control, the T/C [8] was 97 % of control and the T/C [9] was 96 % of control.
For `CCCCCCCOc1ccc(OCCCC[N+]2(CC)CCCCC2)cc1`, the T/C (dose: 1.56 mg/kg/injection, schedule: Q01DX009 (ip), vehicle: saline) was 103 % of control, the T/C (dose: 3.12 mg/kg/injection, schedule: Q01DX009 (ip), vehicle: saline) was 100 % of control and the T/C (dose: 6.25 mg/kg/injection, schedule: Q01DX009 (ip), vehicle: saline) was 102 % of control.
In the case of `CC(C(=O)c1ccccc1)c1nc2nnc(N)n2[nH]c1=O` (centres undefined), the T/C (dose: 60.0 mg/kg/injection, schedule: Q01DX005 (ip), vehicle: saline) was 95 % of control, the T/C (dose: 120.0 mg/kg/injection, schedule: Q01DX005 (ip), vehicle: saline) was 100 % of control and the T/C (dose: 240.0 mg/kg/injection, schedule: Q01DX005 (ip), vehicle: saline) was 95 % of control.
For `N#C/C(=C\c1ccco1)C(=O)c1ccco1`, the T/C (dose: 12.5 mg/kg/injection, schedule: Q01DX009 (ip), vehicle: saline with Tween-80) was 112 % of control, the T/C (dose: 25.0 mg/kg/injection, schedule: Q01DX009 (ip), vehicle: saline with Tween-80) was 95 % of control and the T/C [10] was 89 % of control and 97 % of control.
In the case of `COc1cc2[nH]c3cc(OC)c(OC)cc3c2cc1C`, the T/C (dose: 15.0 mg/kg/injection, schedule: Q01DX005 (ip), vehicle: saline with Tween-80) was 100 % of control, the T/C (dose: 30.0 mg/kg/injection, schedule: Q01DX005 (ip), vehicle: saline with Tween-80) was 96 % of control and the T/C [11] was 102 % of control and 86 % of control.
In the case of `Fc1ccc(C(Nc2nncs2)Nc2nncs2)cc1F`, the T/C [11] was 101 % of control, the T/C [12] was 101 % of control and the T/C [13] was 110 % of control.
In the case of `CCN(Cc1ccc(C(=O)OC)cc1)c1cccc(NC(C)=O)c1`, the T/C [10] was 98 % of control, the T/C [14] was 100 % of control and the T/C [15] was 99 % of control.
With `FC(F)(F)C1=C(C(F)(F)F)SP23(OCCC(CO2)O3)S1` (centres undefined) the T/C (dose: 12.5 mg/kg/injection, schedule: Q01DX009 (ip), vehicle: Klucel (hydroxypropylcellulose) (HPC)) was 107 % of control and 108 % of control, the T/C [16] was 106 % of control and 114 % of control and the T/C [17] was 109 % of control and 114 % of control. The T/C [18] was 107 % of control and 116 % of control.
In the case of `C=C=CCC(=O)N1CCCC1`, the T/C (dose: 50.0 mg/kg/injection, schedule: Q04DX002 (ip), vehicle: saline with Tween-80) was 99 % of control, the T/C (dose: 100.0 mg/kg/injection, schedule: Q04DX002 (ip), vehicle: saline with Tween-80) was 101 % of control and the T/C (dose: 200.0 mg/kg/injection, schedule: Q04DX002 (ip), vehicle: saline with Tween-80) was 104 % of control.
With `CNc1nc(=O)n(-c2ccccc2)c(Cl)c1CCO` the T/C (dose: 75.0 mg/kg/injection, schedule: Q01DX001 (ip), vehicle: Klucel (hydroxypropylcellulose) (HPC)) was 104 % of control, the T/C (dose: 150.0 mg/kg/injection, schedule: Q01DX001 (ip), vehicle: Klucel (hydroxypropylcellulose) (HPC)) was 101 % of control and the T/C (dose: 300.0 mg/kg/injection, schedule: Q01DX001 (ip), vehicle: Klucel (hydroxypropylcellulose) (HPC)) was 100 % of control.
In the case of `N=C(N)c1ccc2cc(/C=C/c3cc4ccc(C(=N)N)cc4o3)oc2c1`, the T/C (dose: 100.0 mg/kg/injection, schedule: Q04DX003 (ip), vehicle: suspension in saline) was 112 % of control and the T/C (dose: 200.0 mg/kg/injection, schedule: Q04DX003 (ip), vehicle: suspension in saline) was 120 % of control.
For `Cc1cc(C)c(CCl)c(C)c1CCl`, the T/C [16] was 106 % of control and the T/C [18] was 100 % of control.
In the case of `S=C1CC2CCCC(C2)N1` (centres undefined), the T/C (dose: 1.87 mg/kg/injection, schedule: Q01DX005 (ip), vehicle: Klucel (hydroxypropylcellulose) (HPC)) was 95 % of control, the T/C (dose: 3.75 mg/kg/injection, schedule: Q01DX005 (ip), vehicle: Klucel (hydroxypropylcellulose) (HPC)) was 100 % of control and the T/C (dose: 7.5 mg/kg/injection, schedule: Q01DX005 (ip), vehicle: Klucel (hydroxypropylcellulose) (HPC)) was 101 % of control and 94 % of control.
In the case of `CC(=O)OCC1OC(n2nc(/C=C/c3ccccc3)c(=O)n(-c3ccccc3)c2=S)C(OC(C)=O)C(OC(C)=O)C1OC(C)=O` (centres undefined), the T/C [4] was 103 % of control, the T/C [5] was 101 % of control and the T/C [6] was 110 % of control.
In the case of `C1CN1Sc1nc(SN2CC2)nc(SN2CC2)n1`, the T/C (dose: 60.0 mg/kg/injection, schedule: Q01DX005 (ip), vehicle: Klucel (hydroxypropylcellulose) (HPC)) was 100 % of control and the T/C (dose: 120.0 mg/kg/injection, schedule: Q01DX005 (ip), vehicle: Klucel (hydroxypropylcellulose) (HPC)) was 97 % of control.
For `O=c1[nH]cnc2c1ccn2C1OC(CO)C(O)C1O` (centres undefined), the T/C (dose: 3.0 mg/kg/injection, schedule: Q01DX009 (ip), vehicle: saline with Tween-80) was 100 % of control, the T/C (dose: 6.0 mg/kg/injection, schedule: Q01DX009 (ip), vehicle: saline with Tween-80) was 100 % of control and the T/C (dose: 12.0 mg/kg/injection, schedule: Q01DX009 (ip), vehicle: saline with Tween-80) was 104 % of control.
For `CSc1nc(NC2OCC(OC(C)=O)C(OC(C)=O)C2OC(C)=O)c(N=CC=Nc2c(NC3OCC(OC(C)=O)C(OC(C)=O)C3OC(C)=O)nc(SC)[nH]c2=O)c(=O)[nH]1` (centres undefined), the T/C [11] was 90 % of control, the T/C [12] was 92 % of control and the T/C [13] was 89 % of control.
With `COc1ccc(OC)c(NC(=O)N2CCCC2)c1` the T/C [10] was 100 % of control, the T/C [14] was 96 % of control and the T/C [15] was 96 % of control.
With `CC1CCN(C(=O)c2nc3ccccc3[nH]2)CC1` the T/C [1] was 102 % of control, the T/C [2] was 103 % of control and the T/C [3] was 107 % of control.
In the case of `COc1ncc(Br)cc1C(=O)NCCc1ccc(S(=O)(=O)NC(=O)NC2CCCCC2)cc1`, the T/C [10] was 99 % of control and the T/C [14] was 92 % of control.
`C=CCOc1cccc(OCC=C)c1C` was tested, and the T/C [4] was 113 % of control, the T/C [5] was 100 % of control and the T/C [6] was 104 % of control.
For `CCCc1c(C)nc2scc(-c3ccccc3)n2c1=O`, the T/C [10] was 105 % of control, the T/C [14] was 99 % of control and the T/C [15] was 99 % of control.
For `c1ccc2c(c1)Nc1nccnc1[Se]2`, the T/C [7] was 100 % of control, the T/C [8] was 101 % of control and the T/C [9] was 101 % of control.
For `CCOC1CSc2ccccc2C(c2ccccc2)=N1` (centres undefined), the T/C (dose: 50.0 mg/kg/injection, schedule: Q01DX005 (ip), vehicle: Klucel + Tween-80) was 107 % of control, the T/C (dose: 100.0 mg/kg/injection, schedule: Q01DX005 (ip), vehicle: Klucel + Tween-80) was 93 % of control and the T/C (dose: 200.0 mg/kg/injection, schedule: Q01DX005 (ip), vehicle: Klucel + Tween-80) was 89 % of control.
In the case of `CC(=O)OC(OC(C)=O)c1ccc([N+](=O)[O-])s1`, the T/C [17] was 109 % of control and the T/C [18] was 87 % of control.
